Data taken from ChEMBL document CHEMBL1141994, “Identification of an agonist ligand for estrogen-related receptors ERRbeta/gamma” (Bioorg Med Chem Lett, 2005).

Assays:
Assay type in all cases: functional
[1] = target: T1, Steroid hormone receptor ERR1 (Homo sapiens) (UniProt P11474); test: Fold activation of estrogen-related receptor alpha at 100 nM in cell-based reporter gene assay
T1 sequence (whole entry): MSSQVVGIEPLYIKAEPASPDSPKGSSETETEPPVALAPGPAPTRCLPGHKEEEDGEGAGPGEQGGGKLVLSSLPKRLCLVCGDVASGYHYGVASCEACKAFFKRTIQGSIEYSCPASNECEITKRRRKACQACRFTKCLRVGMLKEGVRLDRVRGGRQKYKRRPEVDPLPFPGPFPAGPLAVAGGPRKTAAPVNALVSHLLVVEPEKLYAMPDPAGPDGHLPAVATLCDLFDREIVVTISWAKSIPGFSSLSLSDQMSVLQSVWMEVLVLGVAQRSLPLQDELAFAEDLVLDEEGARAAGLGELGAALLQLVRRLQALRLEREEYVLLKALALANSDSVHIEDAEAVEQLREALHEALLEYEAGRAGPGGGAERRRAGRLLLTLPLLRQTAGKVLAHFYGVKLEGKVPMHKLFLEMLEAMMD

[2] = target: T2, Estrogen-related receptor gamma (Homo sapiens) (UniProt P62508); test: Fold activation of estrogen-related receptor gamma at 100 nM in cell-based reporter gene assay
T2 sequence (whole entry): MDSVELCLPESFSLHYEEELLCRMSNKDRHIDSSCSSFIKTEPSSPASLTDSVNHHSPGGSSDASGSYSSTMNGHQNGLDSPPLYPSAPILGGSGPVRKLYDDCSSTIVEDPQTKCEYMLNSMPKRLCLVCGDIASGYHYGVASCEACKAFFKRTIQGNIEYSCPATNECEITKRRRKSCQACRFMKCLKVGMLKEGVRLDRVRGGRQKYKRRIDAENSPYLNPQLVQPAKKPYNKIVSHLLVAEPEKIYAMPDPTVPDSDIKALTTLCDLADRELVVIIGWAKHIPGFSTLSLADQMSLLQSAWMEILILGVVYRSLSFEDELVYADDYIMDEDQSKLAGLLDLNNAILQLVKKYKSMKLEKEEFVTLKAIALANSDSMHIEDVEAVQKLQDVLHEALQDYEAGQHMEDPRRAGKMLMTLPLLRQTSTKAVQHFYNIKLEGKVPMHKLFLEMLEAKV

[3] = target: T3, Steroid hormone receptor ERR2 (Homo sapiens) (UniProt O95718); test: Fold activation of estrogen-related receptor beta at 100 nM in cell-based reporter gene assay
T3 sequence (whole entry): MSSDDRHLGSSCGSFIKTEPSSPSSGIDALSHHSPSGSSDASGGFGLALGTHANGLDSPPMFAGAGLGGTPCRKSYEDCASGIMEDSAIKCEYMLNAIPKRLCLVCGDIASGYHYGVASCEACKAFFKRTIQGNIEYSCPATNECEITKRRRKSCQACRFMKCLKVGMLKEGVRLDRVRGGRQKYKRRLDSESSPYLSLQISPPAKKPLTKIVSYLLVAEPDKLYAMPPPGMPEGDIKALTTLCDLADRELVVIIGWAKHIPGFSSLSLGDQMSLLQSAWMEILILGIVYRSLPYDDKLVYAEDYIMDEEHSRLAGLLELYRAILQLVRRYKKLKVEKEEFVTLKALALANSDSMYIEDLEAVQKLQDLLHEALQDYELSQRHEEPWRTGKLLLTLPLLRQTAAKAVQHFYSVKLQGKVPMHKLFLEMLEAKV

With `C[C@]12CC[C@@H]3c4ccc(O)cc4CC[C@H]3[C@@H]1CC[C@@H]2O` the Activity [1] was 1.1, the Activity [2] was 0.8 and the Activity [3] was 1.
